Data from US10052306B2 (LUC THERAPEUTICS, INC., priority 2013, dated 2018).

Molecular target: NR1/NR2B (Homo sapiens (Human), UniProt Q05586+Q13224)
Assay: Cell assay: FDSS Ca2+ influx inhibition in HEK293 cells expressing NR1/NR2B;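 also: Fluo-8 Ca2+ signal read on Hamamatsu FDSS 6000 after glutamate, glycine and Ca2+ challenge following 10 min compound preincubation, end/baseline fluorescence ratio compared with MK801 control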
Conditions: Ca2+ influx
[1] = Binned Activity, HEK293 cells expressing NR1/NR2B, binned NR2B NAM IC50
[2] = NR2B NAM IC50, HEK293 cells expressing NR1/NR2B

Sequence of NR1/NR2B (Q13224 27-1484, other chains not shown): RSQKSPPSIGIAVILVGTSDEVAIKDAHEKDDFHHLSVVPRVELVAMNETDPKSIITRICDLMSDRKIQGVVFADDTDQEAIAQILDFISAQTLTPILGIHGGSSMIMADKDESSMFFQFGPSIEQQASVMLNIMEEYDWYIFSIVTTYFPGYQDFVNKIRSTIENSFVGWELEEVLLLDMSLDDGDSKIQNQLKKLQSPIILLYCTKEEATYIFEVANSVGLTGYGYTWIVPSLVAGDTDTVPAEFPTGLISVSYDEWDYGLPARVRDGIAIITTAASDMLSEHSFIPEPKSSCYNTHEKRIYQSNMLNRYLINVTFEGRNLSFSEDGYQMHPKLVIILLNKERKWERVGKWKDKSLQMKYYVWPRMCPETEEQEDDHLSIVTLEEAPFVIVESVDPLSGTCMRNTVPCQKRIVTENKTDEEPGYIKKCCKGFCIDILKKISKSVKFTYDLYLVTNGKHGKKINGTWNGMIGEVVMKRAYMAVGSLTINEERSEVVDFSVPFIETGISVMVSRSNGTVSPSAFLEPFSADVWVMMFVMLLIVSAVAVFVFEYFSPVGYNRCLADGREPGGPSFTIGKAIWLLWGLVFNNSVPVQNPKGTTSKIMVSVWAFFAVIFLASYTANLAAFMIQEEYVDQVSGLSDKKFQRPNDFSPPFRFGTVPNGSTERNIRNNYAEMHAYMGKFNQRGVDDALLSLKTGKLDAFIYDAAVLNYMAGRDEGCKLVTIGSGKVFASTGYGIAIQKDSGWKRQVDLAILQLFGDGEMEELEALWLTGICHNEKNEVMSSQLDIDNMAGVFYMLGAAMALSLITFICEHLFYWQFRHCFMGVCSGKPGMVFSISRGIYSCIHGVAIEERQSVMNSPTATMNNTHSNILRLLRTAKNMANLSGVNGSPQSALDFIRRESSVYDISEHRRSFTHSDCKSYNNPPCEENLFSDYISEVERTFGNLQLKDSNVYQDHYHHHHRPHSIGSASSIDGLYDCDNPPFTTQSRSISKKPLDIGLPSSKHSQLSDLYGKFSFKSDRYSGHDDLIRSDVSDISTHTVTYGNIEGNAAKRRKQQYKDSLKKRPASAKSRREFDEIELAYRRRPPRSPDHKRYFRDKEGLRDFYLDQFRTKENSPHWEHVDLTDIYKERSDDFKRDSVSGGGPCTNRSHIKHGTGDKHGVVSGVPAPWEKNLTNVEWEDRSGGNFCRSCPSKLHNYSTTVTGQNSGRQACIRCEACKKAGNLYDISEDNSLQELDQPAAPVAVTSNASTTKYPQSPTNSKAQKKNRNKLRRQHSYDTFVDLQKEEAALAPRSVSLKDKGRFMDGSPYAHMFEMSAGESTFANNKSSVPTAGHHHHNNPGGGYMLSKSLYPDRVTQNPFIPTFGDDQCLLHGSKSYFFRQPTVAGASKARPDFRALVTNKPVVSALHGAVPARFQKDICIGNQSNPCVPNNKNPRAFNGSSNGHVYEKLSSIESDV

Row | SMILES | IC50 [1] [µM] | IC50 [2] [µM]
1 | Oc1ccc(C(O)CN2C[C@@H]3C[C@@](O)(c4cccnc4F)C[C@@H]3C2)nc1 (mixture of isomers) [Example 251, rac-(3aR,6aS)-5-(2-fluoropyridin-3-yl)-2-(2-hydroxy-2-(5-hydroxypyridin-2-yl)ethyl)octahydrocyclo-penta[c]pyrrol-5-ol] | > 10 | ≥ 10
2 | Cc1ccccc1[C@]1(O)C[C@H]2CN(C(C)C(O)c3ccc(O)cc3)C[C@H]2C1 (mixture of isomers) [Example 95, rac-2-[1-hydroxy-1-(4-hydroxyphenyl)propan-2-yl]-5-(2-methylphenyl)-octahydrocyclopenta[c] pyrrol-5-ol] | > 10 | ≥ 10
3 | Cc1ccccc1[C@]1(O)C[C@H]2CN(C(C)C(=O)c3ccc(O)cc3)C[C@H]2C1 (mixture of isomers) [Example 94, rac-2-[5-hydroxy-5-(2-methylphenyl)-octahydrocyclopenta[c]pyrrol-2-yl]-1-(4-hydroxyphenyl)propan-1-one] | > 10 | ≥ 10
4 | CC(C)(C)c1ccc([C@]2(O)C[C@H]3CN(CC(O)c4cccc(F)c4)C[C@H]3C2)cc1 (mixture of isomers) [Example 71, rac-5-(4-tert-butylphenyl)-2-[2-(3-fluorophenyl)-2-hydroxyethyl]-octahydrocyclopenta[c] pyrrol-5-ol] | > 10 | ≥ 10
5 | COc1ccc(C[C@]2(O)C[C@H]3CN(CC(O)c4ccc(O)cn4)C[C@H]3C2)cc1 (mixture of isomers) [Example 199, rac-6-{2-[(3aR,5R,6aS)-5-hydroxy-5-[(4-methoxyphenyl)methyl]-octahydrocyclopenta[c]pyrrol-2-yl]-1-hydroxyethyl}pyridin-3-ol] |  | 0.0363
6 | Oc1ccc(C(O)CN2C[C@@H]3C[C@@](O)(Cc4ccccc4)C[C@@H]3C2)nc1 (mixture of isomers) [Example 144, rac-(3aR,5r,6aS)-5-benzyl-2-(2-hydroxy-2-(5-hydroxypyridin-2-yl)ethyl)octahydrocyclo-penta[c]pyrrol-5-ol] | < 0.1 | 0.0268
7 | Oc1ccc(C(O)CN2C[C@@H]3C[C@@](O)(Cc4ccccc4)C[C@@H]3C2)cc1 (mixture of isomers) [Example 131, rac-(3aR,5r,6aS)-5-benzyl-2-(2-hydroxy-2-(4-hydroxyphenyl)ethyl)octa-hydrocyclopenta[c]pyrrol-5-ol] | < 0.1 | 0.0255
8 | OC(CN1C[C@@H]2C[C@@](O)(c3ccccc3)C[C@@H]2C1)c1ccccc1 (mixture of isomers) [Example 58, rac-2-(2-hydroxy-2-phenylethyl)-5-phenyloctahydrocyclo-penta[c]pyrrol-5-ol] | > 10 | ≥ 10
9 | CC(C(O)c1ccc(O)cc1)N1C[C@@H]2C[C@@](O)(c3ccccc3)C[C@@H]2C1 (mixture of isomers) [Example 91, rac-2-(1-hydroxy-1-(4-hydroxyphenyl)propan-2-yl)-5-phenyloctahydrocyclo-penta[c]pyrrol-5-ol] | > 10 | ≥ 10
10 | Cc1ccccc1[C@]1(O)C[C@H]2CN(CC(O)c3cccc(C(F)(F)F)c3)C[C@H]2C1 (mixture of isomers) [Example 72, rac-2-{2-hydroxy-2-[3-(trifluoromethyl)phenyl]ethyl}-5-(2-methylphenyl)-octahydrocyclopenta[c] pyrrol-5-ol] | > 10 | ≥ 10
11 | CC(C(O)c1ccc(O)cc1)N1C[C@@H]2C[C@@](O)(c3ccc(C(C)(C)C)cc3)C[C@@H]2C1 (mixture of isomers) [Example 96, rac-5-(4-tert-butylphenyl)-2-[1-hydroxy-1-(4-hydroxyphenyl)propan-2-yl]-octahydrocyclopenta[c] pyrrol-5-ol] |  | 10.5
12 | Cc1ccc(NC(=O)N2C[C@@H]3C[C@@](O)(c4ccccc4)C[C@@H]3C2)c(C)c1 [Example 47] | > 10 | ≥ 10
13 | CO[C@@]1(Cc2ccccc2)C[C@H]2CN(CC(O)c3ccc(O)c(F)n3)C[C@H]2C1 (mixture of isomers) [Example 198, rac-6-(2-((3aR,5r,6aS)-5-benzyl-5-methoxyhexahydrocyclo-penta[c]pyrrol-2(1H)-yl)-1-hydroxyethyl)-2-fluoropyridin-3-ol] |  | 0.476
14 | COc1cccc([C@]2(O)C[C@H]3CN(CC(O)c4ccc(Cl)cc4Cl)C[C@H]3C2)c1 (mixture of isomers) [Example 74, rac-2-[2-(2,4-dichlorophenyl)-2-hydroxyethyl]-5-(3-methoxyphenyl)-octahydrocyclopenta[c] pyrrol-5-ol] | > 10 | ≥ 10
15 | COc1cccc(NC(=O)N2C[C@@H]3C[C@@](O)(c4ccccc4)C[C@@H]3C2)c1 [Example 7] | > 10 | ≥ 10
16 | Oc1ccc(C(O)CN2C[C@@H]3C[C@@](O)(Cc4ccccc4)C[C@@H]3C2)nc1F (mixture of isomers) [Example 191, rac-(3aR,5r,6aS)-5-benzyl-2-(2-(6-fluoro-5-hydroxypyridin-2-yl)-2-hydroxyethyl)octahydro-cyclopenta[c]pyrrol-5-ol] |  | 0.171
17 | N#Cc1cccc(NC(=O)N2C[C@@H]3C[C@@](O)(Cc4ccccc4)C[C@@H]3C2)c1 [Example 123, (3aR,5r,6aS)-5-benzyl-N-(3-cyanophenyl)-5-hydroxyhexahydrocyclo-penta[c]pyrrole-2(1H)-carboxamide] | > 10 | ≥ 10

Row | SMILES | IC50 [1] [µM] | IC50 [2] [µM]
18 | O=C(Nc1ccc(Cl)c(C(F)(F)F)c1)N1C[C@@H]2C[C@@](O)(c3ccc(F)cc3)C[C@@H]2C1 [Example 43] | > 10 | ≥ 10
19 | Oc1ccc(C(O)CN2C[C@H]3CN(Cc4ccccc4)C[C@H]3C2)cc1F (mixture of isomers) [Example 341, rac-4-(2-(5-benzylhexahydropyrrolo [3,4-c]pyrrol-2(1H)-yl)-1-hydroxyethyl)-2-fluorophenol] | < 0.1 | 0.0743
20 | Oc1ccc(C(O)CN2C[C@@H]3C[C@](F)(Cc4ccccc4)C[C@@H]3C2)cc1 (mixture of isomers) [Example 311, rac-4-(2-((3aR,5s,6aS)-5-benzyl-5-fluorohexahydrocyclo-penta[c]pyrrol-2(1H)-yl)-1-hydroxyethyl) phenol] | 0.1 to 1 | 0.448
21 | Oc1ccc(C(O)CN2C[C@H]3CN(Cc4ccccc4)C[C@H]3C2)nc1 (mixture of isomers) [Example 329, rac-6-(2-(5-benzylhexahydropyrrolo [3,4-c]pyrrol-2(1H)-yl)-1-hydroxyethyl) pyridin-3-ol] |  | 0.38
22 | COc1cccc([C@]2(O)C[C@H]3CN(CC(O)c4cccc(F)c4)C[C@H]3C2)c1 (mixture of isomers) [Example 63, rac-2-[2-(3-fluorophenyl)-2-hydroxyethyl]-5-(3-methoxyphenyl)-octahydrocyclopenta[c] pyrrol-5-ol] | > 10 | ≥ 10
23 | Oc1ccc(C(O)CN2C[C@@H]3C[C@@](O)(CCc4ccccc4)C[C@@H]3C2)cc1 (mixture of isomers) [Example 321, rac-2-(2-hydroxy-2-(4-hydroxyphenyl)ethyl)-5-phenethyloctahydro-cyclopenta[c] pyrrol-5-ol] | > 10 | ≥ 10
24 | COC(=O)c1ccc(NC(=O)N2C[C@@H]3C[C@@](O)(c4ccc(C(C)(C)C)cc4)C[C@@H]3C2)cc1 [Example 50] | > 10 | 
25 | CC(C(=O)c1ccc(O)cc1)N1C[C@@H]2C[C@](F)(Cc3ccccc3)C[C@@H]2C1 (mixture of isomers) [Example 317, rac-2-((3aR,5s,6aS)-5-benzyl-5-fluoro-hexahydrocyclopen-ta[c]pyrrol-2(1H)-yl)-1-(4-hydroxyphenyl)propan-1-one] |  | 0.284
26 | COc1cccc([C@]2(O)C[C@H]3CN(C(=O)Nc4cccc(C(F)(F)F)c4)C[C@H]3C2)c1 [Example 16] | > 10 | ≥ 10
27 | Oc1ccc(C(O)CN2C[C@@H]3C[C@@](O)(Cc4ccc(F)cc4)C[C@@H]3C2)cc1 (mixture of isomers) [Example 135, rac-(3aR,5r,6aS)-5-(4-fluorobenzyl)-2-(2-hydroxy-2-(4-hy-droxyphenyl)ethyl)octa-hydrocyclopenta[c]pyrrol-5-ol] |  | 0.0271
28 | Cc1ccccc1C[C@]1(O)C[C@H]2CN(CC(O)c3ccc(O)cc3)C[C@H]2C1 (mixture of isomers) [Example 185, rac-(3aR,5r,6aS)-2-(2-hydroxy-2-(4-hydroxyphenyl)ethyl)-5-(2-methylbenzyl)octahydro-cyclopenta[c]pyrrol-5-ol] |  | 0.0349
29 | CO[C@@]1(Cc2ccccc2)C[C@H]2CN(CC(O)c3ccc(O)c(F)c3)C[C@H]2C1 (mixture of isomers) [Example 175, rac-4-(2-((3aR,5r,6aS)-5-benzyl-5-methoxyhexahydrocyclo-penta[c]pyrrol-2(1H)-yl)-1-hydroxyethyl)-2-fluorophenol] |  | 0.0324
30 | CC(C)(C)C(=O)Nc1ccc(C(O)CN2C[C@@H]3C[C@@](O)(Cc4ccccc4)C[C@@H]3C2)cn1 (mixture of isomers) [Example 286, rac-N-(5-(2-(5-benzyl-5-hydroxyhexahydrocyclo-penta[c]pyrrol-2(1H)-yl)-1-hydroxyethyl)pyridin-2-yl)pivalamide] | > 10 | ≥ 10
31 | Oc1ccc(C(O)CN2C[C@@H]3C[C@@](O)(Cc4cccs4)C[C@@H]3C2)nc1 (mixture of isomers) [Example 215, rac-2-(2-hydroxy-2-(5-hydroxypyridin-2-yl)ethyl)-5-(thiophen-2-ylmethyl)octahydrocyclo-penta[c]pyrrol-5-ol] |  | 0.0257
32 | Oc1ccc(C(O)CN2C[C@@H]3C[C@@](O)(Cc4ccccc4)C[C@@H]3C2)cn1 (mixture of isomers) [Example 181, rac-5-{2-[(3aR,5R,6aS)-5-benzyl-5-hydroxy-octahydrocyclopenta[c]pyrrol-2-yl]-1-hydroxyethyl}pyridin-2-ol] | > 10 | ≥ 10
33 | Oc1ccc(C(O)CN2C[C@H]3C[C@H](Cc4ccccc4)C[C@H]3C2)cc1 (mixture of isomers) [Example 306, rac-4-{2-[(3aR,5R,6aS)-5-benzyl-octahydrocyclopenta[c]pyrrol-2-yl]-1-hydroxyethyl}phenol] | < 0.1 | 0.0117
34 | COc1cccc([C@]2(O)C[C@H]3CN(C(C)C(O)c4ccc(O)cc4)C[C@H]3C2)c1 (mixture of isomers) [Example 78, rac-2-(1-hydroxy-1-(4-hydroxyphenyl)propan-2-yl)-5-(3-methoxy-phenyl)octahydro-cyclopenta[c]pyrrol-5-ol] | > 10 | ≥ 10
